Laboratory results: US12404244B2, “Pan-KIT kinase inhibitor having quinoline structure and application thereof” (Tarapeutics Science Inc., priority 2018, dated 2025)
Like-named read-outs stand apart in the source and are kept apart here. Each block holds one compound with its values, some of them ahead of it.

Columns and labels:
[1] = test system: TEL-cKIT/T670I-BaF3 mouse tumor model; assay: Tumor-grafted mouse model established with TEL-cKIT/T670I-BaF3 cells; type: in vivo; conditions: oral, every day
Experimental: In this example Compound 1 and Compound 2 were respectively tested in TEL-cKIT/T670I-BaF3, TEL-cKIT/Y823D-BaF3, TEL-cKIT/D820G-BaF3 and GIST-T1-T670I mouse models.
Experimental protocols were as follows. • (1) Bal b/c female mice aged 4-6 weeks were purchased from Beijing Weitong Lihua Laboratory Animal Co., Ltd., and the mice were raised in an SPF laboratory. The drinking water and padding were sterilized by autoclaving. All operations on mice were conducted under aseptic conditions. • (2) About 5×10^6 TEL-cKIT/T670I-BaF3, TEL-cKIT/Y823D-BaF3, TEL-cKIT/D820G-BaF3 or GIST-T1-T670I cells were respectively injected subcutaneously onto the left back of all mice on Day 0. • (3) From Day 6, for the TEL-cKIT/T670I-BaF3 mouse model the corresponding mice were administrated orally every day with methylcellulose (HKI) as the vehicle (5 mice); with Compound 1 and Compound 2 at a dosage of 10 mg/kg, 20 mg/kg, 40 mg/kg, 100 mg/kg mouse weight (5 mice in each group); and with Sunitnib (purchased from MedChemExpress, China) at a dosage of 40 mg/kg mouse weight (5 mice). From day 6, for the TEL-cKIT/Y823D-BaF3 and TEL-cKIT/D820G-BaF3 mouse models the corresponding mice were administrated orally every day with methylcellulose (HKI) as the vehicle (5 mice); with Compound 1 and Compound 2 at a dosage of 40 mg/kg, 80 mg/kg mouse weight (5 mice in each group); and with Sunitnib (purchased from MedChemExpress, China) at a dosage of 40 mg/kg mouse weight (5 mice). From day 15, for the GIST-T1-T670I mouse model the corresponding mice were administrated orally every day with methylcellulose (HKI) as the vehicle (5 mice); with Compound 1 and Compound 2 at a dosage of 20 mg/kg, 40 mg/kg, 80 mg/kg mouse weight (5 mice in each group); and with Sunitnib at a dosage of 40 mg/kg mouse weight (5 mice). • (4) From day 6 (TEL-cKIT/T670I-BaF3, TEL-cKIT/Y823D-BaF3, TEL-cKIT/D820G-BaF3 mouse model) and From day 15 (GIST-T1-T670I mouse model), respectively, the length/width of the subcutaneous tumor were measured with a vernier caliper every day and the body weight of the mouse was recorded every day so as to determine the effects of Compound 1 and Compound 2 on the body weight and tumor size of the mice, respectively. • (5) The mice were sacrificed on Day 11 after administration for the TEL-cKIT/T670I-BaF3 mouse model, on Day 9 after administration for the TEL-cKIT/Y823D-BaF3 and TEL-cKIT/D820G-BaF3 mouse models, and on Day 28 after administration for the GIST-T1-T670I mouse model. The subcutaneous tumors were taken out, and the tumors were weighed and compared. • (6) The growth trend of subcutaneous tumors was calculated and the tumor size was calculated according to: length×width×width/2 mm^3.

[2] = test system: TEL-KIT-BaF3 (stably expressing KIT wild-type kinase); assay: Proliferation of TEL-KIT-BaF3 cells (CCK-8); type: cell-based, mouse; conditions: Mus musculus, read-out: GI50 TEL-KIT-BaF3
Source text: Compounds as provided herein were further evaluated for their inhibitory effects on proliferation of cancer cells by testing their effects on growth of cancer cells. In this example the following cells were used: primary mouse B cells BaF3 (purchased from ATCC), GIST-T1 cells of the human gastrointestinal stromal tumor cell line (expressing wild-type KIT gene) (purchased from Cosmo Bio Co., Ltd. (Japan)). The present lab further constructed and used the following: mouse Tel-Kit-BaF3 (stably expressing KIT wild-type kinase), mouse Tel-Kit/T670I-BaF3 (stably expressing KIT T670I mutant kinase), mouse Tel-Kit/V559A-BaF3 (stably expressing KIT V559A mutant kinase), mouse Tel-Kit/V559D-BaF3 (stably expressing KIT V559D mutant kinase), mouse Tel-Kit/V559G-BaF3 (stably expressing KIT V559G mutant kinase), mouse Tel-Kit/V560D-BaF3 (stably expressing KIT V560D mutant kinase), mouse Tel-Kit/L576P-BaF3 (stably expressing KIT L576P mutant kinase), mouse Tel-Kit/V654A-BaF3 (stably expressing KIT V654A mutant kinase), mouse Tel-Kit/V654A/V559D-BaF3 (stably expressing KIT V654A V559D mutant kinase), mouse Tel-Kit/T670E-BaF3 (stably expressing KIT T670E mutant kinase), mouse Tel-Kit/T670I/V559D-BaF3 (stably expressing KIT T670I V559D mutant kinase), mouse Tel-Kit/S709F-BaF3 (stably expressing KIT S709F mutant kinase), mouse Tel-Kit/D816E-BaF3 (stably expressing KIT D816E mutant kinase), mouse Tel-Kit/D816H-BaF3 (stably expressing KIT D816H mutant kinase), mouse Tel-Kit/D820E-BaF3 (stably expressing KIT D820E mutant kinase), mouse Tel-Kit/D820G-BaF3 (stably expressing KIT D820G mutant kinase), mouse Tel-Kit/D820Y-BaF3 (stably expressing KIT D820Y mutant kinase), mouse Tel-Kit/N822K-BaF3 (stably expressing KIT N822K mutant kinase), mouse Tel-Kit/Y823D-BaF3 (stably expressing KIT Y823D mutant kinase), mouse Tel-Kit/A829P-BaF3 (stably expressing KIT A829P mutant kinase), GIST-T1-T670I cells of the human gastrointestinal stromal tumor cell line (expressing KIT-T670I mutant gene). The above cell lines were constructed by: amplifying respectively the sequences of human KIT and various mutant kinase regions of KIT via PCR, inserting the fragments respectively into MSCV-Puro vectors having a N-terminal TEL fragment and/or a NPM fragment and/or a TPR fragment (purchased from Clontech), transfecting mouse BaF3 cells with the vectors by means of retrovirus to obtain stably transfected cells, removing the growth factor IL-3, and thereby eventually obtaining cell lines that depend on the transferred protein KIT or various mutants of KIT. The GIST-T1-T670I (expressing C-KIT-T670I mutant gene) cell line was constructed by our laboratory as follows: designing sgRNA that targeted a region around T670 of the KIT gene with CRISPR Design Tool (website: crispr.mit.edu, Zhang Feng Lab), cloning it into pSpCas9(BB)-2A-Puro vector; co-transfecting cells with the resultant vector and a single-stranded oligonucleotide having T670I site mutation that is near to T670, subjecting the resultant to antibiotics screening, followed by dilution, and monocellular culture in a 96-well plate; validating the site T670 of the cells by sequence detection via Sanger sequencing.
The cells after incubation were detected using CCK-8 (purchased from MedChem Express, Shanghai, China) cell viability assay kit (CCK-8 may be reduced by dehydrogenase in living cells to a highly water-soluble yellow formazan product, and the amount of the resultant formazan is proportional to the number of living cells), the number of living cells were quantified with a microplate reader, and GI50 of the compounds and the control compounds were calculated (the results shown in Table 2 and Table 3).

GI50 ([2]; KIT wild-type, 72 hours, CCK-8): 1 nM
Structure (SMILES): COc1cc2nccc(Oc3ccc(NC(=O)Cc4ccc(Cl)c(C(F)(F)F)c4)cc3)c2cc1OC [Example 2, N-(4-((6,7-dimethoxyquinolin-4-yl)oxy)phenyl)-2-(4-chloro-3-(trifluoromethyl)phenyl)-acetamide]
inhibitory effects against tumor in mice ([1]; 40 mg/kg): excellent inhibitory effects against tumor in mice
tumor inhibition rate ([1]; 40 mg/kg): ≥ 80%
influence on mice weight [1]: without significant influence on mice weight

Structure (SMILES): COc1cc2nccc(Oc3ccc(NC(=O)Cc4ccc(C)c(C(F)(F)F)c4)cc3)c2cc1OC [Example 1, N-(4-((6,7-dimethoxyquinolin-4-yl)oxy)phenyl)-2-(4-methyl-3-(trifluoromethyl)phenyl)acetamide]
inhibitory effects against tumor in mice ([1]; 40 mg/kg): excellent inhibitory effects against tumor in mice
influence on mice weight [1]: without significant influence on mice weight
GI50 ([2]; 72 h): 17 nM
